Measured values from patent US4760072A, “Solid nedocromil sodium, useful for the removal of obstructed air pathways” (Fisons, plc, priority 1984, dated 1988).
Where “and” joins values, the source holds several entries; their conditions need not be identical. Equal values may be shown once. Where a name gives a salt, the structure may show the parent alone. Values belong to the compound of their own block, whether it stands above or below them.

What was measured:
[1] = Particle size analysis by Joyce-Loebl disc centrifuge; assay type: physicochemical; settings: four laboratory precipitations; Apex milled and micronised in a fluid energy mill
Method: By mass median diameter we mean the diameter such that half the particulate mass is in particles of lesser diameter and half in particles of greater diameter. The mass median diameter is essentially a Stokes diameter and may be determined using a Joyce Loebl sedimentation disc centrifuge either in a two layer or line start photometric mode (Bagness J and Ottaway A. Proc. Soc. Analyt. Chem. Part 4, Vol 9, 1972 pages 83-86).
Twenty grams of nedocromil sodium were mixed with 60 ml of de-ionised water and 180 ml isopropanol in a 700 ml reaction flask. The mixture was agitated with an anchor-type stirrer at 120 rpm, and heated to its boiling point at around 80° C. The flask was fitted with a water-cooled condenser to prevent escape of isopropanol vapour. The resulting solution was refluxed for about 10 minutes to ensure complete dissolution. The hot solution of nedocromil sodium was then cooled to 75° C. and then added in about 20 seconds to 190 ml of isopropanol at 8° C. The resulting slurry was stirred with the anchor agitator and cooled to 25° C. in the reaction flask. The time taken for cooling was about 45 minutes and throughout this time the crystal slurry remained as the pale yellow, free flowing form. The slurry was then filtered on a Buchner filter using terylene filter cloth, washed with about 50 ml isopropanol and dried in an oven at 60° C. to constant weight. […]

[2] = Aerosol dispersion with single stage liquid impinger; assay type: physicochemical
Excerpt: The single stage liquid impinger samples the whole cloud delivered from the aerosol and separates it into two fractions by inertial impaction. The fraction of smaller particle size is less than 10 microns in aerodynamic diameter and represents material which is likely to penetrate into the deeper regions of the human airways.
In four laboratory precipitations using this method particles of mass mean diameter 2.5, 2.5, 2.8 and 2.8 microns were produced, and these gave aerosol dispersions of 26% and 23% from a 50 microliter valve using the formulation described in Example 1. The dispersion was measured with a single stage liquid impinger.

[3] = Bound water / thermogravimetric analysis; assay type: physicochemical
Method: Form A material containing bound water can best be identified by thermogravimetric analysis in which the temperature of the material to be tested is increased at a constant rate and the change in weight of the sample is recorded against time.
(a) Two samples of about 5 mg of nedocromil sodium were submitted to thermogravimetric analysis at a scan rate of 20° C. per minute.

[4] = Powder X-ray diffraction, crystallinity; assay type: physicochemical
Excerpt: These peaks indicate that the material is crystalline.
In addition to the form A material there is a less desired form B which is of darker yellow colour, i.e. gives a yellow reading of 2.0 or more at 10% w/w total water using a Lovibond tintometer.

[5] = Physical stability of solid form B; assay type: physicochemical
[6] = Air classification of ground nedocromil sodium; assay type: physicochemical
Excerpt: It is further known to be desirable to make inhalation pharmaceuticals in the form of fine particles. These fine particles are conventionally made by grinding or milling larger sized particles of the pharmaceutical. Generally grinding and milling machines are extremely efficient and reduce the particle size of the material as far as they are capable in a single pass. Indeed the mass median diameter of product material can increase after a second pass through the grinder because some of the finest particles are lost to the system. We have also attempted to produce a material of very fine particle size by air classification of ground nedocromil sodium.

[7] = 20° C.; cited from earlier work
[8] = Viscosity of precipitated crystal slurry; assay type: physicochemical; settings: 140 ml isopropanol at 15° C. added; cooled to 22° C. in 30 minutes
Method: Twenty grams of crude nedocromil sodium were mixed with 60 ml of deionised water and 180 ml of isopropyl alcohol in a 700 ml reaction flask. The mixture was agitated with an anchor-type agitator at 120 rpm and heated to boiling point at about 80° C. The solution was refluxed for 10 minutes and then cooled to 75° C. To it was then added a further 140 ml isopropanol at 15° C. […] The resulting slurry was then agitated as in Example 4 and cooled in an ice/salt/isopropanol bath to 22° C. in 30 minutes. […] This slurry was filtered, washed and dried as in Example 4.

[9] = Solid form produced by precipitation process; assay type: physicochemical
Method: Twenty grams of the nedocromil sodium were dissolved in 60 ml of deionised water and 180 ml of isopropyl alcohol by heating to reflux at 81° C. To this solution was then added a further 190 ml of isopropanol (temperature 25° C.) with agitation. The crystal slurry was then cooled in air, maintaining agitation, until a temperature of 25° C. had been reached. The crystals were then filtered on a Buchner filter, using a terylene filter cloth. The filter cake was washed with a displacement volume of isopropanol and filtered further. The cake was then dried in an oven, at atmospheric pressure and 60° C., to constant weight.
1 Kg of nedocromil sodium is dissolved in three liters of deionised water and six liters of isopropanol at 30° C., and the mixture is then heated to reflux (at 81° C.) with agitation to ensure dissolution. The resulting solution is cooled slightly to about 75° C. and then added to another 12.5 liters of isopropanol at a temperature of about -8° C., as quickly as possible. This precipitates out most of the nedocromil sodium and produces a slurry. This slurry is then stirred and cooled to 25° C. over about an hour, to precipitate out further material. The temperature of the slurry is kept at 25° C. and the slurry filtered as soon as possible to remove the mother liquor, and then dried to constant weight at 60° C. […]

aerosol dispersion ([2]; 50 microliter valve, formulation described in Example 1): 26% and 23%
Structure (SMILES): CCCc1c2oc(C(=O)O)cc(=O)c2cc2c(=O)cc(C(=O)O)n(CC)c12 [Example 4]
mass mean diameter [1]: 2.5 microns and 2.8 microns

bound water (in words) [3]: no bound water
thermogravimetric trace (in words) [3]: essentially continuous trace
crystallinity by powder X-ray diffraction [4]: amorphous
Structure (SMILES): CCCc1c2oc(C(=O)O)cc(=O)c2cc2c(=O)cc(C(=O)O)n(CC)c12 [Form B]
coalescence on change to form A [5]: can coalesce to produce hard and intractable lumps of particle size larger than the original material
spontaneous change to form A [5]: can, but does not necessarily,change spontaneously (sometimes after a very considerable time) to form A

bound water (in words) [3]: no tightly bound water
viscosity of slurry [8]: about 20,000 centipoise
form of nedocromil sodium produced [9]: form B
Structure (SMILES): CCCc1c2oc(C(=O)O)cc(=O)c2cc2c(=O)cc(C(=O)O)n(CC)c12 [Example 6]

thermogravimetric trace (in words) [3]: discontinuous
crystallinity by powder X-ray diffraction [4]: crystalline
Structure (SMILES): CCCc1c2oc(C(=O)O)cc(=O)c2cc2c(=O)cc(C(=O)O)n(CC)c12 [Form A]
removability of bound water on intensive drying ([3]; atmospheric pressure): cannot readily be removed by intensive drying at atmospheric pressure without destroying the compound

The next lines start with the compound.

Structure (SMILES): CCCc1c2oc(C(=O)O)cc(=O)c2cc2c(=O)cc(C(=O)O)n(CC)c12 [nedocromil sodium, disodium salt of 9-ethyl-6,9-dihydro-4,6-dioxo-10-propyl-4H-pyrano[3,2-g]-quinoline-2,8-dicarboxylic acid]
dispersion of aerosol units, relative to larger mass median diameter ([2]; mass median diameter less than 4 microns vs exactly analogous units of larger mass median diameter): greater dispersion than exactly analogous units containing nedocromil sodium of larger mass median diameter
mean particle size after air classification [6]: larger mean particle size than the starting material

Structure (SMILES): FC(F)(Cl)Cl [Propellant 12, dichlorodifluoromethane]
vapour pressure (absolute) [7]: about 570 k Pa

Structure (SMILES): FC(F)(Cl)C(F)(F)Cl [Propellant 114, 1,2-dichlorotetrafluoroethane]
vapour pressure (absolute) [7]: about 180 k Pa
